Reference: ChEMBL document CHEMBL5260833, “An overview of quinazolines: Pharmacological significance and recent developments” (Eur J Med Chem, 2018)
≈ marks a conversion by molar mass, not a printed value.

Columns and labels:
[1] = CNS toxicity in po dosed mouse assessed as depression in CNS; assay type: organism-based; conditions: in vivo
Mus musculus = assay: Analgesic activity in […] albino mouse at 20 mg/kg, po measured after 2 hrs by Tail-Flick technique relative to control; assay type: functional
Staphylococcus aureus = assay: Antimicrobial activity against Staphylococcus aureus assessed as bacterial growth inhibition; assay type: functional
Micrococcus luteus = assay: Antimicrobial activity against Micrococcus luteus assessed as bacterial growth inhibition; assay type: functional
[2] = test system: Staphylococcus saprophyticus; assay: Antimicrobial activity against Staphylococcus saprophyticus assessed as bacterial growth inhibition; assay type: functional
[3] = test system: Staphylococcus epidermidis; assay: Antimicrobial activity against Staphylococcus epidermidis assessed as bacterial growth inhibition; assay type: functional
Bacillus subtilis = assay: Antimicrobial activity against Bacillus subtilis assessed as bacterial growth inhibition; assay type: functional
Escherichia coli = assay: Antimicrobial activity against Escherichia coli assessed as bacterial growth inhibition; assay type: functional
Klebsiella oxytoca = assay: Antimicrobial activity against Klebsiella oxytoca assessed as bacterial growth inhibition; assay type: functional
Proteus vulgaris = assay: Antimicrobial activity against Proteus vulgaris assessed as bacterial growth inhibition; assay type: functional
Proteus mirabilis = assay: Antimicrobial activity against Proteus mirabilis assessed as bacterial growth inhibition; assay type: functional
Citrobacter freundii = assay: Antimicrobial activity against Citrobacter freundii assessed as bacterial growth inhibition; assay type: functional
Pseudomonas aeruginosa = assay: Antimicrobial activity against Pseudomonas aeruginosa assessed as bacterial growth inhibition; assay type: functional
Candida albicans = assay: Antimicrobial activity against Candida albicans assessed as bacterial growth inhibition; assay type: functional
Mycolicibacterium phlei = assay: Antimicrobial activity against Mycobacterium phlei assessed as bacterial growth inhibition; assay type: functional
Homo sapiens [4] = species: Homo sapiens; assay: Immunosuppressive activity in human T cell; assay type: functional, organism-based
Homo sapiens [5] = species: Homo sapiens; assay: Immunosuppressive activity in human B cell; assay type: functional, organism-based
[6] = Antiviral activity against Gomphrena mosaic virus relative to control; assay type: functional, Gomphrena mosiac virus; set-up: concentration or dose not given beside the values

SMILES	MIC (Staphylococcus aureus) [µg/mL]	MIC (Micrococcus luteus) [µg/mL]	MIC [2] [µg/mL]	MIC [3] [µg/mL]	MIC (Bacillus subtilis) [µg/mL]	MIC (Escherichia coli) [µg/mL]	MIC (Klebsiella oxytoca) [µg/mL]	MIC (Proteus vulgaris) [µg/mL]	MIC (Proteus mirabilis) [µg/mL]	MIC (Citrobacter freundii) [µg/mL]	MIC (Pseudomonas aeruginosa) [µg/mL]	MIC (Candida albicans) [µg/mL]	MIC (Mycolicibacterium phlei) [µg/mL]	further results
Cc1ccccc1-n1c(CF)nc2ccc(NC(=O)CO)cc2c1=O	–	–	–	–	–	–	–	–	–	–	–	–	–	LD50 [1]: > 1000 mg/kg
CC(=O)Nc1ccc2nc(C[S+](C)[O-])n(-c3ccccc3C)c(=O)c2c1 (stereo not drawn)	–	–	–	–	–	–	–	–	–	–	–	–	–	LD50 [1]: > 1000 mg/kg
O=C([O-])Cc1ccccc1Nc1c(Cl)cccc1Cl.[Na+] [DICLOFENAC SODIUM]	–	–	–	–	–	–	–	–	–	–	–	–	–	Activity (Mus musculus): 60%
O=c1c2ccc(Cl)cc2nc(/C=C/c2ccc(Cl)cc2)n1-c1ccc(OCC(O)CN2CCCCC2)cc1 (stereo not drawn)	125 (≈ 227 µM)	125 (≈ 227 µM)	125 (≈ 227 µM)	125 (≈ 227 µM)	125 (≈ 227 µM)	125 (≈ 227 µM)	125 (≈ 227 µM)	125 (≈ 227 µM)	125 (≈ 227 µM)	125 (≈ 227 µM)	125 (≈ 227 µM)	125 (≈ 227 µM)	125 (≈ 227 µM)	–
O=c1c2ccc(Cl)cc2nc(/C=C/c2ccc(Cl)cc2)n1-c1ccc(O)cc1	125 (≈ 305 µM)	125 (≈ 305 µM)	125 (≈ 305 µM)	125 (≈ 305 µM)	125 (≈ 305 µM)	125 (≈ 305 µM)	125 (≈ 305 µM)	125 (≈ 305 µM)	125 (≈ 305 µM)	125 (≈ 305 µM)	125 (≈ 305 µM)	125 (≈ 305 µM)	125 (≈ 305 µM)	–
O=c1c2ccc(Cl)cc2nc(/C=C/c2ccc(Cl)cc2)n1-c1ccc(OCC2CO2)cc1 (stereo not drawn)	125 (≈ 269 µM)	125 (≈ 269 µM)	125 (≈ 269 µM)	125 (≈ 269 µM)	125 (≈ 269 µM)	125 (≈ 269 µM)	125 (≈ 269 µM)	125 (≈ 269 µM)	125 (≈ 269 µM)	125 (≈ 269 µM)	125 (≈ 269 µM)	125 (≈ 269 µM)	125 (≈ 269 µM)	–
C#CCN(Cc1ccc2nc(C)[nH]c(=O)c2c1)c1ccc(C(=O)N[C@@H](C[C@@H](F)C(=O)O)C(=O)O)cc1	–	–	–	–	–	–	–	–	–	–	–	–	–	IC50 (Homo sapiens [4]): 5.67 nM; IC50 (Homo sapiens [5]): 8.08 nM
O=c1c2ccc([N+](=O)[O-])cc2nc(/C=C/c2ccc(Cl)cc2)n1-c1ccc(O)cc1	125 (≈ 298 µM)	125 (≈ 298 µM)	125 (≈ 298 µM)	125 (≈ 298 µM)	125 (≈ 298 µM)	125 (≈ 298 µM)	125 (≈ 298 µM)	125 (≈ 298 µM)	125 (≈ 298 µM)	125 (≈ 298 µM)	125 (≈ 298 µM)	125 (≈ 298 µM)	125 (≈ 298 µM)	–
Cc1nc2ccc(CN(C)c3ccc(C(=O)N[C@@H](C[C@@H](F)C(=O)O)C(=O)O)s3)cc2c(=O)[nH]1	–	–	–	–	–	–	–	–	–	–	–	–	–	IC50 (Homo sapiens [4]): 5.67 nM; IC50 (Homo sapiens [5]): 8.08 nM
Nc1nc2c(c(=O)[nH]1)C[C@@H](CCc1ccc(C(=O)N[C@@H](C[C@@H](F)C(=O)O)C(=O)O)cc1)CN2	–	–	–	–	–	–	–	–	–	–	–	–	–	IC50 (Homo sapiens [4]): 2300 nM; IC50 (Homo sapiens [5]): 2930 nM
CC(/N=N/n1cnc2ccccc2c1=O)=N\Nc1ccccc1Cl	–	–	–	–	–	–	–	–	–	–	–	–	–	Activity [6]: 15%
CC(/N=N/n1cnc2ccccc2c1=O)=N\Nc1ccccc1	–	–	–	–	–	–	–	–	–	–	–	–	–	Activity [6]: 15%
CCCCNC(=O)Oc1ccc(-n2c(/C=C/c3ccc(Cl)cc3)nc3cc(Cl)ccc3c2=O)cc1	125 (≈ 246 µM)	125 (≈ 246 µM)	125 (≈ 246 µM)	125 (≈ 246 µM)	125 (≈ 246 µM)	125 (≈ 246 µM)	125 (≈ 246 µM)	125 (≈ 246 µM)	125 (≈ 246 µM)	125 (≈ 246 µM)	125 (≈ 246 µM)	125 (≈ 246 µM)	125 (≈ 246 µM)	–
Nc1nc(N)c2c(CCCc3ccc(C(=O)N[C@@H](C[C@H](F)C(=O)O)C(=O)O)cc3)c[nH]c2n1	–	–	–	–	–	–	–	–	–	–	–	–	–	IC50 (Homo sapiens [4]): 1410 nM; IC50 (Homo sapiens [5]): 2930 nM
